According to publication PMC3681905, “Anti-Influenza Activity of C60 Fullerene Derivatives” (PLoS ONE, 2013):
Like-named read-outs stand apart in the source and are kept apart here.

What was measured:
[1] = target: PA N-terminal endonuclease domain (residues 1–220) of influenza A RNA polymerase (Influenza A virus, UniProt P03433); experiment: in vitro PA endonuclease assay with recombinant PA endonuclease domain (M13 mp18 digestion, agarose electrophoresis); type: biochemical, influenza A virus (A/PR/8/34 (H1N1)); settings: Fig. 2C; for inhibition of the digestion of M13 mp18 by the PA endonuclease domain: 10 µM fullerene derivative
Method: For the in vitro PA endonuclease assay, we expressed and purified a recombinant influenza PA endonuclease domain (1–220 residues; Fig. 2A, B) using bacteria as described previously [15]–[17]. For the assay, we incubated 0.1 µM recombinant PA endonuclease domain with 1 or 10 µM of each fullerene derivative (Fig. 2C). The PA endonuclease domain digested M13 mp18 circular single-stranded DNA in vitro (Fig. 2C, lanes 1 and 2) [12]–[16], and we investigated whether any of the fullerene derivatives could inhibit this activity. […] This is the first study to report that fullerene derivatives can inhibit the activity of influenza enzymes. Fullerene derivative no.
The influenza A virus (A/PR/8/34 (H1N1)) RNA polymerase PA plasmid, pBMSA-PA, was obtained from the DNA bank at Riken BioResource Center (Tsukuba, Japan; originally deposited by Susumu Nakada). The cDNA fragment corresponding to the PA N-terminal endonuclease domain (residues 1–220; Fig. 2A) was amplified by polymerase chain reaction (PCR) from pBMSA-PA. The amplified product was subcloned into the pET28a (+) plasmid (Novagen, Madison, WI, USA). The induction of recombinant protein expression was achieved by the addition of isopropyl-D-thiogalactopyranoside, and this was followed by purification using Ni^2+-agarose. The recombinant PA endonuclease domain protein was further purified to near homogeneity (Fig. 2B) using a HiTrapQ-FF column (GE Healthcare, Buckinghamshire, UK).
(§1) Influenza A RNA polymerase PA endonuclease activity assays were performed as described by Dias et al. with some modifications [12]–[16]. Briefly, the pH was lowered from 8.0 to 7.3, and 1 µg M13 mp18 single-stranded circular phage DNA was used as the substrate. A total of 0.25 µg recombinant PA endonuclease domain or full-length PA protein were added to 100 µL assay buffer for each reaction (the final concentration of the protein was approximately 0.1 µM). For the fullerene derivative nuclease assay, no PA protein was added at this step. The fullerene derivatives (summarized in Fig. 1) were then added to the reaction, and the products were analyzed by agarose electrophoresis and stained with ethidium bromide.

[2] = test system: influenza A virus A/Aichi/2/68 (H3N2); experiment: microbe, parasite or virus in culture; type: cell-based; settings: for IC50: read-out: IC50 H3N2 Aichi strain
[3] = target: full-length PA protein of influenza A RNA polymerase (Influenza A virus, UniProt P03433); experiment: in vitro PA endonuclease assay with recombinant full-length PA protein (M13 mp18 digestion); type: biochemical, influenza A virus (A/PR/8/34 (H1N1)); settings: 10 µM fullerene derivative; Fig. 3C
From the text: We expressed the recombinant full-length PA protein by using a baculovirus to infect Sf9 insect cells (Fig. 3A) and purified it using a Ni-agarose and HiTrap-Q column (Fig. 3B). […] Then, we tested the 12 fullerene derivatives using this same assay. The fullerene derivatives 2–5, 7, 8, 10, and 11 inhibited the endonuclease activity of full-length PA (Fig. 3C), which is consistent with the results for the PA endonuclease domain (Fig. 2C). The M13 mp18 band in the no. 12-treated lane was degraded (Fig. 3C lane 14), the band in the no.
The cDNA fragment corresponding to the full-length protein-coding region of PA was amplified by PCR [38] from pBMSA-PA using the primers PA_start_TOPO ([…]), PA stop ([…]), PA_mid_anti ([…]), and PA_mid_TOPO ([…]). The amplified product was then subcloned into the pENTR/D-TOPO plasmid (Gateway®, Life Technologies™, Carlsbad, CA, USA) using topoisomerase I cloning. The resulting construct was then converted to pDEST10-PA using the clonase (Fig. 3A). The plasmid was transfected into Sf9 insect cells using the helper virus. The resultant baculovirus was again transfected into Sf9 cells. The expressed full-length PA protein was purified using Ni^2+-agarose and a HiTrap Q FF column (GE Healthcare) with the AKTA prime plus system (Fig. 3B).
as §1

[4] = test system: influenza A virus (A/PR/8/34 (H1N1)); type: cell-based; settings: 100 µM, A/PR8/34 (H1N1), western blotting
[5] = test system: influenza A virus A/PR/8/34 (H1N1); experiment: microbe, parasite or virus in culture; type: cell-based; settings: for IC50: read-out: IC50 H1N1 PR8 strain
[6] = test system: M13 mp18 single-stranded circular phage DNA; experiment: fullerene derivative nuclease assay in the absence of PA protein; type: biochemical; settings: 10 µM; absence of PA endonuclease; M13 mp18 substrate; Fig. 4
[7] = design: method as in PMID 14643333; settings: cited from earlier work
[8] = design: method as in PMID 14643333; settings: cited from earlier work; remark: listed apart in the source
MDCK cells = settings: 12.5 to 100 µM, 24 h post-incubation
[9] = 0.1 µM recombinant PA endonuclease domain
[10] = Influenza A virus, H3N2, MDCK, 24 h

| Molecule | inhibition of the digestion of M13 mp18 by the PA endonuclease domain [1, 9] | inhibition of the endonuclease activity of full-length PA (M13 mp18 band) [3] | expression levels of influenza A NP and NS1 proteins compared with DMSO-treated cells [4] | IC50 [2, 10] [µM] | number of NP-positive cells in comparison with the control (DMSO) [5] | IC50 ([5]; Influenza A virus, MDCK, 24 h) [µM] | further results |
| --- | --- | --- | --- | --- | --- | --- | --- |
| [60]fullerenotricyclopropane-1,1,1′,1′,1′′,1′′-hexacarboxylic acid [no. 8] | significantly inhibited | inhibited | slightly reduced |  |  |  | IC50 [2]: > 100 µM; IC50 [5]: 37 µM |
| O=C(O)C1NC(c2ccccc2)C23c4c5c6c7c8c9c(c%10c%11c2c2c4c4c%12c5c5c6c6c8c8c%13c9c9c%10c%10c%11c%11c2c2c4c4c%12c%12c5c5c6c8c6c8c%13c9c9c%10c%10c%11c2c2c4c4c%12c5c6c5c8c9c%10c2c45)C713 (centres unmarked) [no. 11, 5-phenyl [60]fullerenopyrrolidine-2-carboxylic acid] | significantly inhibited | inhibited | reduced | > 100 | significantly reduced | 44 |  |
| O=C(O)CN1CCN(CC(=O)O)C23c4c5c6c7c8c9c(c%10c%11c2c2c4c4c%12c5c5c6c6c8c8c%13c9c9c%10c%10c%11c%11c2c2c4c4c%12c%12c5c5c6c8c6c8c%13c9c9c%10c%10c%11c2c2c4c4c%12c5c6c5c8c9c%10c2c45)C713 (centres unmarked) [no. 7, [60]fullerenopiperazine-1,4-diacetic acid] | significantly inhibited | inhibited | slightly reduced | > 100 |  | > 100 |  |
| CN1CC23c4c5c6c7c8c9c(c%10c%11c2c2c4c4c%12c5c5c6c6c8c8c%13c9c9c%10c%10c%11c%11c2c2c4c4c%12c%12c5c5c6c8c6c8c%13c9c9c%10c%10c%11c2c2c4c4c%12c5c6c5c8c9c%10c2c45)C73C1c1cc[n+](C)cc1 (centres unmarked) [no. 12, 4-(1′-methyl [60]fullerenopyrrolidin-2′-yl)-1-methylpyridinium iodide] |  | degraded | slightly reduced |  | significantly reduced |  | nuclease activity of the fullerene derivative by itself [6]: weaker nuclease activity; inhibition of the digestion of M13 mp18 by the PA endonuclease domain ([1]; […]): slightly inhibited; IC50 [2]: 63 µM; IC50 [5]: 78 µM |
| CC(C)C1NC(C(=O)O)C23c4c5c6c7c8c9c(c%10c%11c2c2c4c4c%12c5c5c6c6c8c8c%13c9c9c%10c%10c%11c%11c2c2c4c4c%12c%12c5c5c6c8c6c8c%13c9c9c%10c%10c%11c2c2c4c4c%12c5c6c5c8c9c%10c2c45)C713 (centres unmarked) [no. 5, 5-isopropyl [60]fullerenopyrrolidine-2-carboxylic acid] |  |  | reduced | > 100 |  | 37 |  |
| CCOC(=O)CN1C(C(=O)O)C23c4c5c6c7c8c9c(c%10c%11c2c2c4c4c%12c5c5c6c6c8c8c%13c9c9c%10c%10c%11c%11c2c2c4c4c%12c%12c5c5c6c8c6c8c%13c9c9c%10c%10c%11c2c2c4c4c%12c5c6c5c8c9c%10c2c45)C73C1C(=O)OCC (centres unmarked) [no. 10, 1-ethoxycarbonylmethyl [60]fullerenopyrrolidine-2,5-dicarboxylic acid 2-ethyl ester] | significantly inhibited | inhibited | slightly reduced | > 100 | slightly decreased | > 100 |  |
| Oc1cc2c(cc1O)CC13c4c5c6c7c8c9c(c%10c%11c1c1c4c4c%12c5c5c6c6c8c8c%13c9c9c%10c%10c%11c%11c1c1c4c4c%12c%12c5c5c6c8c6c8c%13c9c9c%10c%10c%11c1c1c4c4c%12c5c6c5c8c9c%10c1c45)C73C2 (centres unmarked) [no. 1, 1,4-dihydro-6,7-dihydroxy [60]fullerenonaphthlene] | no or weak inhibitory activity | slightly inhibited | comparable |  | comparable |  | IC50 H3N2 Aichi strain [2]: could not be calculated; number of NP-positive cells in comparison with the DMSO [2]: comparable; solubility in water (solubility in water): relatively low; IC50 H1N1 PR8 strain [5]: could not be calculated |
| 1,1,1′,1′-tetramethyl [60]fullerenodipyrrolidinium diiodide [no. 6] | no or weak inhibitory activity |  | reduced |  |  |  | nuclease activity of the fullerene derivative by itself [6]: significant nuclease activity; mobility shift of M13 mp18 ([1]; lane 13): caused a mobility shift; antibacterial activity [7]: antiproliferative and antibacterial activity; IC50 [2]: 31 µM; IC50 [5]: 20 µM; antiviral effects against the influenza A virus (overall conclusion) ([5]; summary of immunostaining and western blotting): strongest antiviral activity; antiproliferative activity [8]: antiproliferative and antibacterial activity |
| O=C(O)CN1C(C(=O)O)C23c4c5c6c7c8c9c(c%10c%11c2c2c4c4c%12c5c5c6c6c8c8c%13c9c9c%10c%10c%11c%11c2c2c4c4c%12c%12c5c5c6c8c6c8c%13c9c9c%10c%10c%11c2c2c4c4c%12c5c6c5c8c9c%10c2c45)C73C1C(=O)O (centres unmarked) [no. 4, 1-carboxymethyl [60]fullerenopyrrolidine-2,5-dicarboxylic acid] |  |  |  | 91 |  | 70 |  |
| CCN1C(C(=O)O)C23c4c5c6c7c8c9c(c%10c%11c2c2c4c4c%12c5c5c6c6c8c8c%13c9c9c%10c%10c%11c%11c2c2c4c4c%12c%12c5c5c6c8c6c8c%13c9c9c%10c%10c%11c2c2c4c4c%12c5c6c5c8c9c%10c2c45)C73C1C(=O)O (centres unmarked) [no. 9, 1-ethyl [60]fullerenopyrrolidine-2,5-dicarboxylic acid] | no or weak inhibitory activity | slightly inhibited | comparable |  | comparable |  | IC50 H3N2 Aichi strain [2]: could not be calculated; number of NP-positive cells in comparison with the DMSO [2]: comparable; IC50 H1N1 PR8 strain [5]: could not be calculated |
| COC1Cc2cccc(c2)Oc2c(O)cccc2CCc2ccc(cc2)Oc2cc1cc(O)c2O (centres unmarked) [Marchantin E, reference compound] |  |  | reduced | 53 |  | 43 | cell viability vs DMSO-treated cells (MTT) (MDCK cells): not significantly different |
